From patent publication US4640915A, “1-azabicyclo[3.2.0]hept-2-ene-2-carboxylic acid derivatives” (Fujisawa Pharmaceutical Co., Ltd., priority 1982, dated 1987)
Like-named read-outs stand apart in the source and are kept apart here.

Columns and labels:
[1] = tested on: Escherichia coli 36; test: Synergistic Protecting Effect on experimental mice infection; type: in vivo, ICR strain-mice (infected with Escherichia coli 36); settings: combination 1:1 by weight, subcutaneous, one hour after i.p. challenge, survival over 4 days
Method: (i) Combination of Compound C (Compound of the present invention) and Ceftizoxime (known antimicrobial agent, hereinafter referred to as CZX) (1:1 by weight).
(ii) Combination of Compound C (Compound of the present invention) and Cefazolin (known antimicrobial agent, hereinafter referred to as CEZ) (1:1 by weight).
4-week-old male ICR strain-mice, weighing 21.5±1.5 g.
1.1×10^5 Colony forming unit of Escherichia coli 36 suspended in 0.5 ml of 5% mucin were intraperitoneally injected.
One hour after challenge, mice were treated subcutaneously with various doses of test compound. The ED50 values were calculated by the probit method from the number of mice surviving 4 days of observation.

[2] = tested on: Esherichia coli NIHJ JC-2; test: in vitro antimicrobial activity, two-fold agar-plate dilution method (MIC); type: cell-based; settings: Escherichia coli, NIHJJC2; E. coli NIHJ JC-2; HI-agar, 37° C., 20 hours
Method: (§1) In vitro Antimicrobial activity was determined by the two-fold agar-plate dilution method as described below.
(§2) One loopful of an overnight culture of each test strain in Trypticase-soy broth (10^6 viable cells per ml) was streaked on heart infusion agar (HI-agar) containing graded concentrations of the test compound, and the minimal inhibitory concentration (MIC) was expressed in terms of μg/ml after incubation at 37° C. for 20 hours.

[3] = tested on: Staphylococcus aureus 209P JC-1; test: as above; type: cell-based; settings: S. aureus 209P JC-1, HI-agar, 37° C., 20 hours
Method: as §1, §2

[4] = target: R-TEM Penicillinase (Escherichia coli, UniProt P62593); test: Inactivation of β-Lactamase, direct spectrophotometric assay with chromogenic cephalosporin; type: biochemical, Escherichia coli 18; settings: 100 μg/ml, 5 minutes at 37° C.
Chain of R-TEM Penicillinase (P62593 24-286 limits assumed): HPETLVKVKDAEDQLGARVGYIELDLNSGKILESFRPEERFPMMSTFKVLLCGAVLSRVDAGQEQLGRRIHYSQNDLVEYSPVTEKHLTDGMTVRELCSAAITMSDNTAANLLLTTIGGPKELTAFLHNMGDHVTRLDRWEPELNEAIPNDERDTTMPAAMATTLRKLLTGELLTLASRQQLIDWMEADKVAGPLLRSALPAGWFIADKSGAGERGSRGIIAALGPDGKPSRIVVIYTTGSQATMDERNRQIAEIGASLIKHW

[5] = target: Ia Cephalosporinase (Enterobacter cloacae, UniProt P05364); test: as above; type: biochemical, Enterobacter cloacae 91; settings: 5 min, read-out: Inactivation (%)
Chain of Ia Cephalosporinase (P05364 21-381): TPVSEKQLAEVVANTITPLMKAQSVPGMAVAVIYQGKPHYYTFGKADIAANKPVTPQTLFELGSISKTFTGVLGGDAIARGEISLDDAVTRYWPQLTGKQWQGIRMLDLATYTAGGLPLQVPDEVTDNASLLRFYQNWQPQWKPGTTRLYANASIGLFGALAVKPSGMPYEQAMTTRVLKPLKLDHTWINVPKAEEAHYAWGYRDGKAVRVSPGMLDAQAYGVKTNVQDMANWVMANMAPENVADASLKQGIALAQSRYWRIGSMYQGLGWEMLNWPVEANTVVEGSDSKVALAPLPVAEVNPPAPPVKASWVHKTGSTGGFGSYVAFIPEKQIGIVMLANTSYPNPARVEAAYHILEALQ
Method: Ia Cephalosporinase derived from Enterobacter cloacae 91.
Test compound solution (100 μg/ml) was incubated for 5 minutes at 37° C. with β-lactamase before determination of enzymatic activity. β-Lactamase activity was measured by direct spectrophotometric assay using a chromogenic cephalosporin as a substrate. The extent of inactivation was expressed as percent ratio of inactivated activity.

| Structure (SMILES) | ED50 values ([1]; (ii) with CEZ) [mg/kg] | ED50 values ([1]; (i) with CZX) [mg/kg] | MIC [2] [µg/mL] | MIC [3] [µg/mL] | Inactivation (%) [4] [%] | further results |
| --- | --- | --- | --- | --- | --- | --- |
| Cc1nnc(SCC2=C(C(=O)O)N3C(=O)[C@@H](NC(=O)Cn4cnnn4)[C@H]3SC2)s1 [CEZ, Cefazolin, reference compound] | 20.8 | – | – | – | – | – |
| CO/N=C(\C(=O)N[C@@H]1C(=O)N2C(C(=O)O)=CCS[C@H]12)c1csc(N)n1 [CZX, Ceftizoxime, reference compound] | – | 3.42 | – | – | – | – |
| CC(C)(O)[C@@H]1C(=O)N2C(C(=O)[O-])=C(Sc3ccncc3)C[C@H]12.[Na+] [Compound A, Sodium (5R, 6R)-3-(4-pyridylthio)-6-(1-hydroxy-1-methylethyl)-7-oxo-1-azabicyclo[3.2.0]hept-2-ene-2-carboxylate] | – | – | 0.1 | 0.1 | – | – |
| Cc1nnc(SC2=C(C(=O)[O-])N3C(=O)[C@@H](C(C)(C)O)[C@H]3C2)s1.[K+] [Compound B, Potassium (5R, 6R)-3-(5-methyl-1,3,4-thiadiazol-2-ylthio)-6-(1-hydroxy-1-methylethyl)-7-oxo-1-azabicyclo[3.2.0]hept-2-ene-2-carboxylate] | – | – | 0.2 | 0.2 | – | – |
| CC(C)(O)[C@H]1C(=O)N2C(C(=O)[O-])=C(Sc3ccncc3)C[C@H]12.[Na+] [Compound C, Sodium (5R,6S)-3-(4-pyridylthio)-6-(1-hydroxy-1-methylethyl)-7-oxo-1-azabicyclo[3.2.0]hept-2-ene-2-carboxylate] | > 112 | > 112 | – | – | > 95 | inhibition at 100 µg/mL ([5]; 100 μg/ml, 5 minutes at 37° C., Ia Cephalosporinase): > 95% |
| Cn1nnnc1SC1=C(C(=O)[O-])N2C(=O)[C@@H](C(C)(C)O)[C@H]2C1.[K+] [Compound D, Potassium (5R,6R)-3-(1-methyl-1H-tetrazol-5-ylthio)-6-(1-hydroxy-1-methylethyl)-7-oxo-1-azabicyclo[3.2.0]hept-2-ene-2-carboxylate] | – | – | – | – | > 95 | inhibition at 100 µg/mL [5]: > 95% |
